Data on 36 molecules can be found in patent US20070249607A1, “NK-1 AND SEROTONIN TRANSPORTER INHIBITORS” (Bristol-Myers Squibb Company, priority 2006, published 2007).

Assay [1] concerns the target T1, neurokinin-1 (NK-1) receptor (Homo sapiens, UniProt P25103).
T1 construct: a human glioblastoma-astrocytoma cell line that endogenously expresses the neurokinin-1 (NK-1) receptor; endogenous in cells; host or cells: U373 human glioblastoma-astrocytoma cells (membranes)
Description: NK-1 Binding assay ([125I] Substance P competition, U373 cell membranes). Particulars: Table 2; U373 membranes, [125I] Substance P displacement; read-out: NK-1 IC50. Summed up:
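Membranes were prepared from U373 human glioblastoma-astrocytoma cells, which express NK-1 endogenously, in 50 mM Tris-HCl pH 7.4 with 3 mM MnCl2, BSA and protease inhibitors. IC50 taken as the midpoint of the specific-binding displacement curve.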

Assay [2] concerns the target T2, human serotonin transporters (Homo sapiens, UniProt P31645).
T2 construct: expressed in transfected cells
In words: Serotonin transporter binding assay ([3H]-citalopram competition, HEK-hSERT cell membranes). The note with it: Table 2; HEK-hSERT membranes, [3H]-citalopram displacement; read-out: SERT IC50. The procedure, abridged:
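Competition binding against 1 nM [3H]-citalopram (1 hr, 25 °C, Tris pH 7.4 with NaCl/KCl) on stably transfected HEK-hSERT cell membranes, bound ligand collected on filters. Fluoxetine (10 μM) defined nonspecific binding; curve midpoint gives IC50, convertible to Ki by Cheng–Prusoff.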

T2 sequence (P31645 whole entry): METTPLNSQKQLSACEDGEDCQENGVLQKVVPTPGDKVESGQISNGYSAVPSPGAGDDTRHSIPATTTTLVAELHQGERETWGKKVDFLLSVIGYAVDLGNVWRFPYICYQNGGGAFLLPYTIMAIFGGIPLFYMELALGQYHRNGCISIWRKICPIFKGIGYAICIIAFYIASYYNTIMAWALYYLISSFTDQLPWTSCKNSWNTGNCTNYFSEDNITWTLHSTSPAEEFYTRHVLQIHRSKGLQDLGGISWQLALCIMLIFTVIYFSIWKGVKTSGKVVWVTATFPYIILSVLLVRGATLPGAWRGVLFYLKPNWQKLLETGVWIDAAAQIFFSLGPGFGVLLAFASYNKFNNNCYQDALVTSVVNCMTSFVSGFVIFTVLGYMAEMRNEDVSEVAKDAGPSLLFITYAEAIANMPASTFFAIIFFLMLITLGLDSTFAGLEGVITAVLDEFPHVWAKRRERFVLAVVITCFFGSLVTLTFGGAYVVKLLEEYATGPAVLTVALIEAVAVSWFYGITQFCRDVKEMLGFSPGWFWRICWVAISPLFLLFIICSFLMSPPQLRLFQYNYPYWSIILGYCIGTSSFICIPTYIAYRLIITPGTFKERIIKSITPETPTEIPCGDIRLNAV
T1 sequence (P25103 whole entry): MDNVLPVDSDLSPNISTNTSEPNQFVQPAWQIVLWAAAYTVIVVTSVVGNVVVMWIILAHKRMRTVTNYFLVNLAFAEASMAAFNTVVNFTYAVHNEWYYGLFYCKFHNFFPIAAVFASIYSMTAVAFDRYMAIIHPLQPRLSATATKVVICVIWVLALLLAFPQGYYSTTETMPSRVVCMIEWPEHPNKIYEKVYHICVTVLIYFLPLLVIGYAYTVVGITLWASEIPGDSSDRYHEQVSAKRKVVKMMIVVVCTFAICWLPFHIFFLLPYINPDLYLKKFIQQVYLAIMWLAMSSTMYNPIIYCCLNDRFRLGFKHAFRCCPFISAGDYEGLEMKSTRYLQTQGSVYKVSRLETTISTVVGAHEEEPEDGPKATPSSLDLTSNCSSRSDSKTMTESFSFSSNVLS

As for `CCCCOc1ccc(-c2cc(COCC3(c4ccccc4)CCNCC3)cc(C(F)(F)F)c2)cc1`, the half-maximal inhibitory concentration (IC50) in assay [1] and in assay [2] was 0.01 to 100 nM throughout.
`COc1ccc(-c2cc(COCC3(c4ccccc4)CCNCC3)cc(C(F)(F)F)c2)c(OC)n1`: the IC50 in assay [1] and in assay [2] was 0.01 to 100 nM in each case.
With `FC(F)(F)c1cc(COCC2(c3ccccc3)CCNCC2)cc(-c2ccc(C3CCNCC3)nc2)c1`, the half-inhibitory concentration (IC50) is greater than 300 nM in assay [1] and 0.01 to 100 nM in assay [2].
Regarding `COC(=O)c1cccc(-c2cc(COCC3(c4ccccc4)CCNCC3)cc(C(F)(F)F)c2)c1`, the half-inhibitory concentration (IC50) in assay [1] is 100 to 300 nM; in assay [2] it was 0.01 to 100 nM.
For the molecule `CC(C)OC(=O)c1cccc(-c2cc(COCC3(c4ccccc4)CCNCC3)cc(C(F)(F)F)c2)c1`, the IC50 in assay [1] is greater than 300 nM; in assay [2], 100 to 300 nM.
Consider `O=C(Nc1ccc(-c2cc(COCC3(c4ccccc4)CCNCC3)cc(C(F)(F)F)c2)cc1)OCc1ccccc1`, for which the IC50 in assay [1] and in assay [2] was 0.01 to 100 nM in each case.
As to `FC(F)(F)c1cc(COCC2(c3ccccc3)CCNCC2)cc(-c2cccc(OCc3ccccc3)c2)c1`, the half-maximal inhibitory concentration (IC50) in assay [1] and in assay [2] was 0.01 to 100 nM throughout.
Regarding `Fc1cc(-c2cc(COCC3(c4ccccc4)CCNCC3)cc(C(F)(F)F)c2)cc(F)c1F`, the 50% inhibitory concentration (IC50) in assay [1] and in assay [2] was 0.01 to 100 nM in each case.
With `CCS(=O)(=O)c1ccc(-c2cc(COCC3(c4ccccc4)CCNCC3)cc(C(F)(F)F)c2)cc1`, the 50% inhibitory concentration (IC50) in assay [1] is 100 to 300 nM; in assay [2], 0.01 to 100 nM.
Take `COc1cc(-c2cc(COCC3(c4ccccc4)CCNCC3)cc(C(F)(F)F)c2)ccc1O`: the half-inhibitory concentration (IC50) in assay [1] and in assay [2] was 0.01 to 100 nM in each case.
For the molecule `CCCCc1ccc(-c2cc(COCC3(c4ccccc4)CCNCC3)cc(C(F)(F)F)c2)cc1`, the IC50 in assay [1] and in assay [2] was 0.01 to 100 nM each time.
With `CC(C)c1ccc(-c2cc(COCC3(c4ccccc4)CCNCC3)cc(C(F)(F)F)c2)cc1`, the results for the IC50 in assay [1] and in assay [2] were greater than 300 nM and 0.01 to 100 nM, respectively.
For `O=C(OCc1ccccc1)c1ccc(-c2cc(COCC3(c4ccccc4)CCNCC3)cc(C(F)(F)F)c2)cc1`, the IC50 in assay [1] and in assay [2] was 0.01 to 100 nM throughout.
With `CCOC(=O)c1cccc(-c2cc(COCC3(c4ccccc4)CCNCC3)cc(C(F)(F)F)c2)c1`, the IC50 fell in the range of 100 to 300 nM in assay [1] and 0.01 to 100 nM in assay [2].
`O=C(OCc1ccccc1)c1cccc(-c2cc(COCC3(c4ccccc4)CCNCC3)cc(C(F)(F)F)c2)c1`: the IC50 in assay [1] was greater than 300 nM; in assay [2], 0.01 to 100 nM.
With `O=[N+]([O-])c1ccccc1-c1cc(COCC2(c3ccccc3)CCNCC2)cc(C(F)(F)F)c1`, the IC50 in assay [1] and in assay [2] was 0.01 to 100 nM in each case.
On to `CC(=O)Nc1ccc(-c2cc(COCC3(c4ccccc4)CCNCC3)cc(C(F)(F)F)c2)cc1`, for which the IC50 in assay [1] and in assay [2] was 0.01 to 100 nM each time.
Turning to `CCOC(=O)c1ccccc1-c1cc(COCC2(c3ccccc3)CCNCC2)cc(C(F)(F)F)c1`, the IC50 was greater than 300 nM in assay [1] and 100 to 300 nM in assay [2].
As for `COc1ccc(C)cc1-c1cc(COCC2(c3ccccc3)CCNCC2)cc(C(F)(F)F)c1`, the IC50 in assay [1] is greater than 300 nM; in assay [2], 0.01 to 100 nM.
Regarding `COC(=O)c1cc(-c2cc(COCC3(c4ccccc4)CCNCC3)cc(C(F)(F)F)c2)cc([N+](=O)[O-])c1`, the results for the IC50 in assay [1] and in assay [2] were greater than 300 nM and 0.01 to 100 nM, respectively.
`CC(C)OC(=O)c1ccc(-c2cc(COCC3(c4ccccc4)CCNCC3)cc(C(F)(F)F)c2)cc1`: the IC50 in assay [1] and in assay [2] was 0.01 to 100 nM throughout.
Turning to `COc1cccc(-c2cc(COCC3(c4ccccc4)CCNCC3)cc(C(F)(F)F)c2)c1OC`, the IC50 in assay [1] and in assay [2] was 100 to 300 nM in each case.
As to `COc1ccc2cc(-c3cc(COCC4(c5ccccc5)CCNCC4)cc(C(F)(F)F)c3)ccc2c1`, the IC50 is greater than 300 nM in assay [1] and 0.01 to 100 nM in assay [2].
On to `CCOc1ccc2cc(-c3cc(COCC4(c5ccccc5)CCNCC4)cc(C(F)(F)F)c3)ccc2c1`, for which the IC50 in assay [1] lay in the range of 100 to 300 nM; in assay [2], 0.01 to 100 nM.
As for `CC(C)Oc1ccc(-c2cc(COCC3(c4ccccc4)CCNCC3)cc(C(F)(F)F)c2)cc1`, the IC50 in assay [1] and in assay [2] was 100 to 300 nM in each case.
On to `CC(=O)c1ccccc1-c1cc(COCC2(c3ccccc3)CCNCC2)cc(C(F)(F)F)c1`, for which the values for the half-inhibitory concentration (IC50) in assay [1] and in assay [2] were greater than 300 nM and 100 to 300 nM, respectively.
Take `COC(=O)c1ccc(-c2cc(COCC3(c4ccccc4)CCNCC3)cc(C(F)(F)F)c2)cc1`: the 50% inhibitory concentration (IC50) in assay [1] and in assay [2] was 0.01 to 100 nM each time.
For `Cc1ccc(-c2cc(COCC3(c4ccccc4)CCNCC3)cc(C(F)(F)F)c2)c2ccccc12`, the IC50 is greater than 300 nM in assay [1] and 100 to 300 nM in assay [2].
`Cc1cccc(-c2cc(COCC3(c4ccccc4)CCNCC3)cc(C(F)(F)F)c2)c1C`: the IC50 in assay [1] lay in the range of 100 to 300 nM; in assay [2] it was 0.01 to 100 nM.
For `Cc1cc(-c2cc(COCC3(c4ccccc4)CCNCC3)cc(C(F)(F)F)c2)ccc1F` the same measures were 0.01 to 100 nM and 0.01 to 100 nM.
On to `FC(F)(F)c1cc(COCC2(c3ccccc3)CCNCC2)cc(-c2ccc(C3CCCCC3)cc2)c1`, for which the IC50 in assay [1] is greater than 300 nM; in assay [2], 100 to 300 nM.
For `CCc1ccccc1-c1cc(COCC2(c3ccccc3)CCNCC2)cc(C(F)(F)F)c1`, the 50% inhibitory concentration (IC50) in assay [1] was greater than 300 nM; in assay [2], 0.01 to 100 nM.
Consider `Cc1cc(-c2cc(COCC3(c4ccccc4)CCNCC3)cc(C(F)(F)F)c2)cc(C)c1O`, for which the figures for the IC50 in assay [1] and in assay [2] were greater than 300 nM and 0.01 to 100 nM, respectively.
Turning to `O=[N+]([O-])c1ccc(-c2cc(COCC3(c4ccccc4)CCNCC3)cc(C(F)(F)F)c2)cc1`, the IC50 in assay [1] and in assay [2] was 0.01 to 100 nM in each case.
Take `COc1ccc(-c2cc(COCC3(c4ccccc4)CCNCC3)cc(C(F)(F)F)c2)cc1C`: the half-maximal inhibitory concentration (IC50) in assay [1] and in assay [2] was 0.01 to 100 nM in each case.
As to `CCCOc1cccc(-c2cc(COCC3(c4ccccc4)CCNCC3)cc(C(F)(F)F)c2)c1`, the half-inhibitory concentration (IC50) is greater than 300 nM in assay [1] and 100 to 300 nM in assay [2].
